Reference: patent publication US20080194585A1, “Fungicidal Pyrazine Derivatives” (priority 2005, published 2008)
Marks after values point to notes of the source that are not given here.

How the values were obtained:
[1] = test system: Erysiphe graminis f. sp. tritici; test: Test L: wheat powdery mildew, preventive spray on wheat seedlings; details: 40 ppm (marked *); 100 = 100% disease control, 0 = no control
Plasmopara viticola = test: Test D: grape downy mildew, spray after inoculation of grape seedlings; type: in vivo; details: 100 = 100% disease control
Description: Upon removal, disease ratings were made. […] A dash (-) indicates no test results.

Rhizoctonia oryzae = test: Test G: turf brown patch, preventive spray on creeping bent grass seedlings; details: 40 ppm (marked *); 100 = 100% disease control, 0 = no control
Description: (the causal agent of turf brown patch) and incubated in a saturated atmosphere at 27° C. for 24 h, and then moved to a growth chamber at 27° C. for 5 days, after which disease ratings were made.

Septoria tritici = test: Test J: wheat leaf blotch, preventive spray on wheat seedlings; type: in vivo; details: 40 ppm (marked *); 100 = 100% disease control, 0 = no control
Description: A dash (-) indicates no test results.

Phytophthora infestans = test: whole plant or invertebrate; type: in vivo; details: 100 = 100% disease control
Septoria nodorum = test: Test H: wheat glum blotch, preventive spray on wheat seedlings; details: 40 ppm (marked *); 100 = 100% disease control, 0 = no control
Description: (the causal agent of wheat glum blotch) and incubated in a saturated atmosphere at 20° C. for 48 h, and then moved to a growth chamber at 22° C. for 5 days, after which disease ratings were made.

Botrytis cinerea = test: Test E: tomato botrytis, preventive spray on tomato seedlings; details: 40 ppm (marked *); 100 = 100% disease control, 0 = no control
[2] = test system: Colletotrichum orbiculare; test: Test B: cucumber Colletotrichum anthracnose, preventive spray on cucumber seedlings; details: 40 ppm (marked *); 100 = 100% disease control, 0 = no control
fusarium graminearium = test: Test I: wheat head scab, preventive spray on wheat seedlings; details: 100 = 100% disease control
Description: (the causal agent of wheat head scab) and incubated in a saturated atmosphere at 20° C. for 72 h, and then moved to a growth chamber at 22° C. for 5 days, after which disease ratings were made.

Pythium aphanidermatum = test: Test A: bluegrass pythium blight, preventive spray on bluegrass seedlings; details: 200 ppm; 100 = 100% disease control, 0 = no control relative to controls
[3] = 40 ppm (marked *), 0 = no control
[4] = 200 ppm, 0 = no control relative to controls

Which results are given for `Cc1ccn(-c2nc(Cl)c(-c3c(F)cc(F)cc3F)n(-c3ccc(F)c(Cl)c3)c2=O)n1` [compound 407]?
Test L disease control rating [1]: 0* %; Test D disease control rating (Plasmopara viticola; [3]): 0* %; Test G disease control rating (Rhizoctonia oryzae): 9* %; Test J disease control rating (Septoria tritici): 99* %; Test F disease control rating (Phytophthora infestans; [3]): 0* %; Test H disease control rating (Septoria nodorum): 99* %; Test E disease control rating (Botrytis cinerea): 99* %; Test B disease control rating [2]: 32* %; Test I disease control rating (fusarium graminearium; [3]): 0* %

Which results are given for `O=c1c(-n2cccn2)nc(Cl)c(-c2c(F)cc(F)cc2F)n1-c1ccc(F)cc1` [compound 408]?
Test L disease control rating [1]: 99* %; Test D disease control rating (Plasmopara viticola; [3]): 0* %; Test G disease control rating (Rhizoctonia oryzae): 91* %; Test J disease control rating (Septoria tritici): 99* %; Test F disease control rating (Phytophthora infestans; [3]): 0* %; Test H disease control rating (Septoria nodorum): 100* %; Test E disease control rating (Botrytis cinerea): 99* %; Test B disease control rating [2]: 98* %; Test I disease control rating (fusarium graminearium; [3]): 0* %

With `Cc1ccn(-c2nc(Cl)c(-c3c(F)cc(F)cc3F)n(-c3ccc(F)cc3)c2=O)n1` [compound 409] as the compound, how does the “Test L disease control rating” value [1] read?
The value was 60* %.

And the “Test D disease control rating” value (Plasmopara viticola; [3])?
Its value is 0* %.

What about the “Test G disease control rating” value (Rhizoctonia oryzae) of the same compound?
The value was 24* %.

And the “Test J disease control rating” value (Septoria tritici)?
The value was 99* %.

And the “Test F disease control rating” value (Phytophthora infestans; [3])?
The value was 0* %.

And the “Test H disease control rating” value (Septoria nodorum)?
Its value is 99* %.

And the “Test E disease control rating” value (Botrytis cinerea)?
Its value is 99* %.

What about the “Test B disease control rating” value [2] of the same compound?
Its value is 98* %.

What about the “Test I disease control rating” value (fusarium graminearium; [3]) of the same compound?
Its value is 0* %.

`O=c1c(-n2cccn2)nc(Cl)c(-c2c(F)cc(F)cc2F)n1-c1cc(F)c(F)c(F)c1` [compound 410] was tested. Which “Test L disease control rating” value [1] did it give?
Its value is 0* %.

And the “Test D disease control rating” value (Plasmopara viticola; [3])?
The value was 0* %.

And the “Test G disease control rating” value (Rhizoctonia oryzae)?
Its value is 17* %.

What about the “Test J disease control rating” value (Septoria tritici) of the same compound?
The value was 98* %.

And the “Test F disease control rating” value (Phytophthora infestans; [3])?
The value was 0* %.

And the “Test H disease control rating” value (Septoria nodorum)?
Its value is 99* %.

What about the “Test E disease control rating” value (Botrytis cinerea) of the same compound?
Its value is 99* %.

What about the “Test B disease control rating” value [2] of the same compound?
The value was 97* %.

And the “Test I disease control rating” value (fusarium graminearium; [3])?
The value was 0* %.

What does the source list for `Cc1ccn(-c2nc(Cl)c(-c3c(F)cc(F)cc3F)n(-c3cc(F)c(F)c(F)c3)c2=O)n1` [compound 411]?
Test L disease control rating [1]: 87* %; Test D disease control rating (Plasmopara viticola; [3]): 0* %; Test G disease control rating (Rhizoctonia oryzae): 16* %; Test J disease control rating (Septoria tritici): 98* %; Test F disease control rating (Phytophthora infestans; [3]): 0* %; Test H disease control rating (Septoria nodorum): 99* %; Test E disease control rating (Botrytis cinerea): 99* %; Test B disease control rating [2]: 98* %; Test I disease control rating (fusarium graminearium; [3]): 0* %

What does the source list for `CCn1c(-c2ccc(F)cc2Cl)c(Cl)nc(C(N)=O)c1=O` [compound 412]?
Test L disease control rating [1]: 0* %; Test D disease control rating (Plasmopara viticola; [4]): 16%; Test G disease control rating (Rhizoctonia oryzae): 0* %; Test J disease control rating (Septoria tritici): 0* %; Test F disease control rating (Phytophthora infestans; [4]): 9%; Test H disease control rating (Septoria nodorum): 0* %; Test E disease control rating (Botrytis cinerea): 29* %; Test B disease control rating [2]: 0* %; Test I disease control rating (fusarium graminearium; [4]): 0%

With `CCCn1c(-c2c(F)cc(F)cc2F)c(Cl)nc(C(N)=O)c1=O` [compound 413] as the compound, how does the “Test L disease control rating” value [1] read?
The value was 98* %.

What about the “Test A disease control rating” value (Pythium aphanidermatum) of the same compound?
Its value is 68%.

What about the “Test D disease control rating” value (Plasmopara viticola; [4]) of the same compound?
The value was 64%.

What about the “Test G disease control rating” value (Rhizoctonia oryzae) of the same compound?
Its value is 0* %.

What about the “Test J disease control rating” value (Septoria tritici) of the same compound?
The value was 93* %.

And the “Test F disease control rating” value (Phytophthora infestans; [4])?
The value was 95%.

What about the “Test H disease control rating” value (Septoria nodorum) of the same compound?
The value was 99* %.

And the “Test E disease control rating” value (Botrytis cinerea)?
Its value is 99* %.

And the “Test B disease control rating” value [2]?
The value was 0* %.

And the “Test I disease control rating” value (fusarium graminearium; [4])?
The value was 0%.

Which “Test L disease control rating” value [1] does the source give for `CCC(C)Cn1c(-c2c(F)cc(F)cc2F)c(Cl)nc(C(N)=O)c1=O` (centres unmarked) [compound 415] here?
The value was 99* %.

And the “Test A disease control rating” value (Pythium aphanidermatum)?
The value was 86%.

And the “Test D disease control rating” value (Plasmopara viticola; [4])?
The value was 95%.

What about the “Test G disease control rating” value (Rhizoctonia oryzae) of the same compound?
Its value is 0* %.

What about the “Test J disease control rating” value (Septoria tritici) of the same compound?
Its value is 95* %.

And the “Test F disease control rating” value (Phytophthora infestans; [4])?
The value was 99%.

And the “Test H disease control rating” value (Septoria nodorum)?
The value was 100* %.

And the “Test E disease control rating” value (Botrytis cinerea)?
Its value is 99* %.

And the “Test B disease control rating” value [2]?
Its value is 91* %.

And the “Test I disease control rating” value (fusarium graminearium; [4])?
The value was 0%.
